Data on one molecule can be found in patent US11547683B2, “Therapeutic compounds, formulations, and uses thereof” (Tvardi Therapeutics, Inc., priority 2020, dated 2023).

The structures appear in SMILES notation.

The nature of the series: Studies on oxidation of the compound of Formula (I). Format: physicochemical. The procedure:
Stability was analyzed using a variety of antioxidants. A bulk formulation containing Kolliphor® RH 40, PEG600, Polysorbate 80, Labrasol®, and Transcutol® HP (45:15:10:20:10 by weight) was prepared with a compound of Formula (I) concentration of 60 mg/g. Antioxidants, including Vitamin E (0.05 wt %), ascorbyl palmitate (0.05 wt %), butylated hydroxytoluene (0.005 wt %), and triethyl citrate (0.7 wt %) were dissolved/dispersed in the bulk formulation, respectively. The resulting samples were placed at room temperature in glass vials and protected from light. The samples were monitored for purity by HPLC at 0, 3, and 8 weeks.

With `COc1ccc(S(=O)(=O)Nc2cc(-c3c(O)ccc4ccccc34)c(O)c3ccccc23)cc1` [Compound of Formula (I)], the susceptibility to oxidation result is recorded as “susceptible to oxidation”.
